# Measurements reported in patent publication US20240101600A1, “FIBROBLAST GROWTH FACTOR RECEPTOR (FGFR)-TARGETING ANTAGONISTIC SHORT PEPTIDE” (WENZHOU MEDICAL UNIVERSITY, priority 2019, published 2024).
# Where no end group is shown, it is not given here.
# Experiments:
# [1] = tested on: PLCy; assay: Western blot of FGFR1 downstream protein PLCy in MEF-WT cells; format: cell-based; settings: bFGF stimulation 15 min
# Method: (§1) Human embryonic kidney cells HEK-293, fibroblasts MEF-WT and Balb/c 3T3 were inoculated into 6-well plates, respectively. After growing adherently overnight, the cells were pretreated with P48 for 10 min or with AZD4547/PD173074/SSR for 2 h, and incubated with bFGF for 15 min. […] The experimental procedure was as follows: MEF-WT and MEFKO (FGFR1-FGFR2-FRS2a) cells (1×10^6 cells/ml) were inoculated in a 35 mm petri dish. After being adhered to the wall of petri dish overnight, the cells were washed with PBS; FITC-conjugated P48 (1, 10, 100 and 1000 nM) was added, and the cells were incubated in an incubator for 30 min. The cells were immobilized with 1% paraformaldehyde in the dark and washed with PBS. An expression level of the FITC was measured at a fluorescence channel 1 (FL-1) (530 nm), with an excitation wavelength of 488 nm. Data analysis was conducted using CellQuest software (Becton Dickinson).
# [2] = molecular target: FGFR1 (Homo sapiens, UniProt P11362); assay: Western blot of bFGF-induced FGFR1 activation in HEK-293 cells; format: cell-based; design: endogenous in cells; host or cells: HEK-293; settings: P48 pretreatment 10 min, bFGF 15 min
# Method: as §1
# [3] = tested on: gastric cancer cells SGC-7901; assay: Transwell migration of SGC-7901 cells; format: cell-based; settings: 24 h
# Method: In vitro anti-tumor activity of a short peptide compound P48 Hela229 (1500 cells/100 μl), B16-F10 (1000 cells/100 μl), NCI-H460 (4000 cells/100 μl) and SGC7901 (4000 cells/100 μl) cells were inoculated in 96-well plates. After incubated overnight adherently, the original medium was replaced with a Dulbecco's modified eagle medium (DMEM) containing 0.1% fetal bovine serum (FBS) or a Roswell Park Memorial Institute 1640 (RPMI-1640) medium containing 0.1% FBS, and culture was continued for 24 h. A mixture of P48 and bFGF, or bFGF alone were added into corresponding wells, and incubated for 48 h; an MTT solution (5 mg/mL) prepared by PBS was added to the cells in each well at 37° C., and treated for 4 h. The MTT was removed by aspiration, 150 μL of DMSO was added to each well, shaking was conducted for 10 min, and an optical density (OD) value was quantified with a microplate reader (SpectraMax M2/M2e, Molecular Devices, Sunnyvale, USA) at a wavelength of 490 nm. The percentage of drug growth inhibition rate was calculated by comparing with the bFGF group. […] The experimental procedure was as follows: 10% FBS-containing medium (500 μl) was added to a lower surface of a transwell insertion chamber, the cells together with the drug were inoculated into an upper chamber, and cultured with a serum-free medium (200 μl). […]
# [4] = molecular target: FGFR1B (Homo sapiens, UniProt P11362); assay: SPR detection of interaction with FGFR1B in presence of bFGF; format: binding
# Method: Amino acid sequence of P9 degraded short peptide P48 was analyzed using Amber11 program. An initial structure of the P9 and P48 peptide chains was constructed using a sequence command in a Tleap module of the Amber11 program. Hydrogen atoms were added using the Tleap module of the Amber11 program, a […] TIP3P solvent box was added at a distance of 10 Å from the peptide chain, and counter ions were added to the two systems to keep the system electrically neutral. The system was subjected to 20-ns NPT system simulation to obtain an optimal spatial structure. […] The experimental procedure was as follows: the plasma was centrifuged and the supernatant was removed, and 60 μl of peptide was added to incubate for different lengths of time (P9 was incubated for 5, 10, 15, 20, 25, 30 and 45 min; P48 was incubated for 1, 2, 3, 4, 5, 10 and 12 h), and the incubation was terminated with 200 μl of 5% glacial acetic acid. Solid phase extraction: activation was conducted with 1.5 ml of methanol, an obtained product was washed with 1.5 ml of H2O, 400 μl of a sample was loaded, washed with 1 ml of H2O, and elution was conducted with 2 ml of 30% acetonitrile to collect samples, and the samples were freeze-dried and subjected to liquid chromatography analysis. […] The last 1 ns of trajectory obtained by molecular dynamics simulation of the system was selected to calculate the binding free energy, the molecules of the solvent of water and counter ion were deleted, and conformation was recorded every 10 ps to obtain a total of 101 structures. The binding free energy between FGF2 and FGFR1 were calculated by a molecular mechanics-generalized born surface area (MM-GBSA) method. The binding free energy and energy decomposition of amino acid residues were calculated using an MMPBA.py script provided by the Amber11. […] After bFGF and FGFR1 flew into the sensor chip, P48 (50 μM, 100 μM, 200 μM, 300 μM and 400 μM) was injected into a sensor surface, and the obtained data was analyzed using BIAevaluation software.
# Chain of FGFR1B (P11362 22-822 isoform P11362-19 limits assumed): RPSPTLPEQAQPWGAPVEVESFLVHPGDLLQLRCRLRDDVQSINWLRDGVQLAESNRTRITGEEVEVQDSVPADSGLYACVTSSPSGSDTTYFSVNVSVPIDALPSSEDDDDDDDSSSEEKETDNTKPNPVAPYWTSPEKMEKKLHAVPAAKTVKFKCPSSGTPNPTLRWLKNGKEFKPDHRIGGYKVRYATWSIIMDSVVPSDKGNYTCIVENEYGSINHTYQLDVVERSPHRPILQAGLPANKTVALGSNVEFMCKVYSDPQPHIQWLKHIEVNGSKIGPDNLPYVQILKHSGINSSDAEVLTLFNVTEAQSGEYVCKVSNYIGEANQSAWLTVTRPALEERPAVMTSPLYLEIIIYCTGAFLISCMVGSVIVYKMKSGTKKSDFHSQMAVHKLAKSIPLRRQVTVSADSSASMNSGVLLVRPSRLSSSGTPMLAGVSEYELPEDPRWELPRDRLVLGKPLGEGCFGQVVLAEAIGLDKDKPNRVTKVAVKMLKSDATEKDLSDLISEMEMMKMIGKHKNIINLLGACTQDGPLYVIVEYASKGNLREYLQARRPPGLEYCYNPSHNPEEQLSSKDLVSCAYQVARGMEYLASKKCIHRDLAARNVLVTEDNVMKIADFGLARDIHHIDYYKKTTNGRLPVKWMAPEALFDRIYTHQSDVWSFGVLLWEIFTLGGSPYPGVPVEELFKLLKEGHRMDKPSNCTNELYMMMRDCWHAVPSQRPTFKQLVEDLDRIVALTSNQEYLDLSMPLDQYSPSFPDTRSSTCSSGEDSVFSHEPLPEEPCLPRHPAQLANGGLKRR
# Chain of FGFR1 (P11362 22-822): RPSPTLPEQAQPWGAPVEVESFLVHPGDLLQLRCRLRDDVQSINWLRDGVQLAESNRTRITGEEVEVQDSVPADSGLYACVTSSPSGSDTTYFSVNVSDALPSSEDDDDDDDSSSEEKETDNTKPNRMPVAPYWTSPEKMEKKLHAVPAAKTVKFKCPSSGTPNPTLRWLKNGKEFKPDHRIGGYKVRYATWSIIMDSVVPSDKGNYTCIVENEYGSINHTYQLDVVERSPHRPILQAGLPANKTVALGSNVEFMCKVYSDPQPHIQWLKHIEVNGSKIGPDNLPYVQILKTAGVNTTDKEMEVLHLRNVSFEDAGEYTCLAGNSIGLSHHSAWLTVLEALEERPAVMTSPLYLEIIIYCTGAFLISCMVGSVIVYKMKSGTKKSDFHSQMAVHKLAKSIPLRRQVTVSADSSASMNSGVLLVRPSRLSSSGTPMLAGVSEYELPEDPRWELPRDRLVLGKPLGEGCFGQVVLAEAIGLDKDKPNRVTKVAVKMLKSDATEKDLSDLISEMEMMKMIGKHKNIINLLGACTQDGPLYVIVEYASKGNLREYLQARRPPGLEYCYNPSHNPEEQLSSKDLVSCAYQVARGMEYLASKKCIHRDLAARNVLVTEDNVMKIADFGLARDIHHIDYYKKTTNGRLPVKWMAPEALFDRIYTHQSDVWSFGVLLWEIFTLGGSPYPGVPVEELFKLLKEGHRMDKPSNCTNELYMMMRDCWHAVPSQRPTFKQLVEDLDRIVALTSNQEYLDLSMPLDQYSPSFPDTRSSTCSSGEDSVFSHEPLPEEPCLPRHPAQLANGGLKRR
substance,measurement,setting,value
"SPPRYPGGGS-NH2 [P48, Ser-Pro-Pro-Arg-Tyr-Pro-Gly-Gly-Gly-Ser-NH2]",inhibitory effect on downstream PLCy,[1],no significant inhibitory effect
same,inhibition of FGFR1 activation induced by bFGF,[2],can inhibit activation of FGFR1 induced by bFGF in a concentration-dependent manner
same,inhibition of cell migration,[3],can inhibit cell migration in a concentration-dependent manner
same,competitive binding to FGFR1 with bFGF,[4]; P48 50-400 μM,can competitively bind to FGFR1 with basic fibroblast growth factor (bFGF)
same,concentration dependence of binding force,[4]; P48 50-400 μM,a higher concentration leads to a stronger binding force
same,binding degree FGFR1 versus FGFR2 and FGFR3,[4]; comparison of FIG. 1F and FIG. 2,stronger than that with FGFR2 and FGFR3
